In the NIST ThermoML archive (doi:10.1016/j.jct.2012.03.003):

Assay: xn = mol fraction of the nth substance listed
Settings: Liquid, Vibrating tube method

COc1cc2c(cc1O)CC1c3c(cc(O)c(OC)c3-2)CCN1C (stereo not given) [boldine] + CCO
Settings | mass density [kg/m3]
313.01 K, 1000 kPa, x1 = 0.0196 | 817.64
313.01 K, 2000 kPa, x1 = 0.0196 | 818.47
313.01 K, 3000 kPa, x1 = 0.0196 | 819.29
313.01 K, 4000 kPa, x1 = 0.0196 | 820.13
313.01 K, 5000 kPa, x1 = 0.0196 | 820.98
313.01 K, 6000 kPa, x1 = 0.0196 | 821.82
313.01 K, 7000 kPa, x1 = 0.0196 | 822.67
313.01 K, 8000 kPa, x1 = 0.0196 | 823.53
313.01 K, 9000 kPa, x1 = 0.0196 | 824.37
313.01 K, 10000 kPa, x1 = 0.0196 | 825.22
313.01 K, 11000 kPa, x1 = 0.0196 | 826.07
313.01 K, 12000 kPa, x1 = 0.0196 | 826.9
313.01 K, 13000 kPa, x1 = 0.0196 | 827.74
313.01 K, 14000 kPa, x1 = 0.0196 | 828.55
313.01 K, 15000 kPa, x1 = 0.0196 | 829.36
313.01 K, 16000 kPa, x1 = 0.0196 | 830.17
313.01 K, 17000 kPa, x1 = 0.0196 | 830.96
313.01 K, 18000 kPa, x1 = 0.0196 | 831.74
313.01 K, 19000 kPa, x1 = 0.0196 | 832.5
313.01 K, 20000 kPa, x1 = 0.0196 | 833.23
313.09 K, 1000 kPa, x1 = 0.0012 | 775.75
313.09 K, 1000 kPa, x1 = 0.0267 | 829.8
313.09 K, 2000 kPa, x1 = 0.0012 | 776.61
313.09 K, 2000 kPa, x1 = 0.0267 | 830.62
313.09 K, 3000 kPa, x1 = 0.0012 | 777.49
313.09 K, 3000 kPa, x1 = 0.0267 | 831.43
313.09 K, 4000 kPa, x1 = 0.0012 | 778.37
313.09 K, 4000 kPa, x1 = 0.0267 | 832.27
313.09 K, 5000 kPa, x1 = 0.0012 | 779.27
313.09 K, 5000 kPa, x1 = 0.0267 | 833.1
313.09 K, 6000 kPa, x1 = 0.0012 | 780.17
313.09 K, 6000 kPa, x1 = 0.0267 | 833.94
313.09 K, 7000 kPa, x1 = 0.0012 | 781.08
313.09 K, 7000 kPa, x1 = 0.0267 | 834.77
313.09 K, 8000 kPa, x1 = 0.0012 | 781.99
313.09 K, 8000 kPa, x1 = 0.0267 | 835.61
313.09 K, 9000 kPa, x1 = 0.0012 | 782.89
313.09 K, 9000 kPa, x1 = 0.0267 | 836.46
313.09 K, 10000 kPa, x1 = 0.0012 | 783.79
313.09 K, 10000 kPa, x1 = 0.0267 | 837.26
313.09 K, 11000 kPa, x1 = 0.0012 | 784.7
313.09 K, 11000 kPa, x1 = 0.0267 | 838.09
313.09 K, 12000 kPa, x1 = 0.0012 | 785.59
313.09 K, 12000 kPa, x1 = 0.0267 | 838.91
313.09 K, 13000 kPa, x1 = 0.0012 | 786.48
313.09 K, 13000 kPa, x1 = 0.0267 | 839.73
313.09 K, 14000 kPa, x1 = 0.0012 | 787.35
313.09 K, 14000 kPa, x1 = 0.0267 | 840.53
313.09 K, 15000 kPa, x1 = 0.0012 | 788.21
313.09 K, 15000 kPa, x1 = 0.0267 | 841.33
313.09 K, 16000 kPa, x1 = 0.0012 | 789.07
313.09 K, 16000 kPa, x1 = 0.0267 | 842.12
313.09 K, 17000 kPa, x1 = 0.0012 | 789.89
313.09 K, 17000 kPa, x1 = 0.0267 | 842.89
313.09 K, 18000 kPa, x1 = 0.0012 | 790.71
313.09 K, 18000 kPa, x1 = 0.0267 | 843.66
313.09 K, 19000 kPa, x1 = 0.0012 | 791.52
313.09 K, 19000 kPa, x1 = 0.0267 | 844.41
313.09 K, 20000 kPa, x1 = 0.0012 | 792.31
313.09 K, 20000 kPa, x1 = 0.0267 | 845.14
313.1 K, 1000 kPa, x1 = 0.0074 | 788.76
313.1 K, 2000 kPa, x1 = 0.0074 | 789.61
313.1 K, 3000 kPa, x1 = 0.0074 | 790.46
313.1 K, 4000 kPa, x1 = 0.0074 | 791.34
313.1 K, 5000 kPa, x1 = 0.0074 | 792.21
313.1 K, 6000 kPa, x1 = 0.0074 | 793.1
313.1 K, 7000 kPa, x1 = 0.0074 | 793.98
313.1 K, 8000 kPa, x1 = 0.0074 | 794.88
313.1 K, 9000 kPa, x1 = 0.0074 | 795.77
313.1 K, 10000 kPa, x1 = 0.0074 | 796.66
313.1 K, 11000 kPa, x1 = 0.0074 | 797.53
313.1 K, 12000 kPa, x1 = 0.0074 | 798.41
313.1 K, 13000 kPa, x1 = 0.0074 | 799.28
313.1 K, 14000 kPa, x1 = 0.0074 | 800.14
313.1 K, 15000 kPa, x1 = 0.0074 | 800.98
313.1 K, 16000 kPa, x1 = 0.0074 | 801.81
313.1 K, 17000 kPa, x1 = 0.0074 | 802.63
313.1 K, 18000 kPa, x1 = 0.0074 | 803.44
313.1 K, 19000 kPa, x1 = 0.0074 | 804.23
313.1 K, 20000 kPa, x1 = 0.0074 | 805
313.13 K, 1000 kPa, x1 = 0.0136 | 801.85
313.13 K, 2000 kPa, x1 = 0.0136 | 802.69
313.13 K, 3000 kPa, x1 = 0.0136 | 803.55
313.13 K, 4000 kPa, x1 = 0.0136 | 804.42
313.13 K, 5000 kPa, x1 = 0.0136 | 805.28
313.13 K, 6000 kPa, x1 = 0.0136 | 806.15
313.13 K, 7000 kPa, x1 = 0.0136 | 807.04
313.13 K, 8000 kPa, x1 = 0.0136 | 807.92
313.13 K, 9000 kPa, x1 = 0.0136 | 808.79
313.13 K, 10000 kPa, x1 = 0.0136 | 809.66
313.13 K, 11000 kPa, x1 = 0.0136 | 810.53
313.13 K, 12000 kPa, x1 = 0.0136 | 811.4
313.13 K, 13000 kPa, x1 = 0.0136 | 812.25
313.13 K, 14000 kPa, x1 = 0.0136 | 813.1
313.13 K, 15000 kPa, x1 = 0.0136 | 813.94
313.13 K, 16000 kPa, x1 = 0.0136 | 814.77
313.13 K, 17000 kPa, x1 = 0.0136 | 815.58
313.13 K, 18000 kPa, x1 = 0.0136 | 816.37
313.13 K, 19000 kPa, x1 = 0.0136 | 817.16
313.13 K, 20000 kPa, x1 = 0.0136 | 817.92
323.03 K, 1000 kPa, x1 = 0.0012 | 766.88
323.03 K, 2000 kPa, x1 = 0.0012 | 767.82
323.03 K, 3000 kPa, x1 = 0.0012 | 768.76
323.03 K, 4000 kPa, x1 = 0.0012 | 769.71
323.03 K, 5000 kPa, x1 = 0.0012 | 770.66
323.03 K, 6000 kPa, x1 = 0.0012 | 771.62
323.03 K, 7000 kPa, x1 = 0.0012 | 772.58
323.03 K, 8000 kPa, x1 = 0.0012 | 773.53
323.03 K, 9000 kPa, x1 = 0.0012 | 774.49
323.03 K, 10000 kPa, x1 = 0.0012 | 775.44
323.03 K, 11000 kPa, x1 = 0.0012 | 776.38
323.03 K, 12000 kPa, x1 = 0.0012 | 777.32
323.03 K, 13000 kPa, x1 = 0.0012 | 778.24
323.03 K, 14000 kPa, x1 = 0.0012 | 779.15
323.03 K, 15000 kPa, x1 = 0.0012 | 780.06
323.03 K, 16000 kPa, x1 = 0.0012 | 780.94
323.03 K, 17000 kPa, x1 = 0.0012 | 781.82
323.03 K, 18000 kPa, x1 = 0.0012 | 782.68
323.03 K, 19000 kPa, x1 = 0.0012 | 783.53
323.03 K, 20000 kPa, x1 = 0.0012 | 784.35
323.04 K, 1000 kPa, x1 = 0.0074 | 779.9
323.04 K, 1000 kPa, x1 = 0.0196 | 808.75
323.04 K, 2000 kPa, x1 = 0.0074 | 780.82
323.04 K, 2000 kPa, x1 = 0.0196 | 809.64
323.04 K, 3000 kPa, x1 = 0.0074 | 781.75
323.04 K, 3000 kPa, x1 = 0.0196 | 810.53
323.04 K, 4000 kPa, x1 = 0.0074 | 782.68
323.04 K, 4000 kPa, x1 = 0.0196 | 811.42
323.04 K, 5000 kPa, x1 = 0.0074 | 783.61
323.04 K, 5000 kPa, x1 = 0.0196 | 812.32
323.04 K, 6000 kPa, x1 = 0.0074 | 784.55
323.04 K, 6000 kPa, x1 = 0.0196 | 813.21
323.04 K, 7000 kPa, x1 = 0.0074 | 785.48
323.04 K, 7000 kPa, x1 = 0.0196 | 814.12
323.04 K, 8000 kPa, x1 = 0.0074 | 786.42
323.04 K, 8000 kPa, x1 = 0.0196 | 815.02
323.04 K, 9000 kPa, x1 = 0.0074 | 787.36
323.04 K, 9000 kPa, x1 = 0.0196 | 815.91
323.04 K, 10000 kPa, x1 = 0.0074 | 788.29
323.04 K, 10000 kPa, x1 = 0.0196 | 816.8
323.04 K, 11000 kPa, x1 = 0.0074 | 789.22
323.04 K, 11000 kPa, x1 = 0.0196 | 817.69
323.04 K, 12000 kPa, x1 = 0.0074 | 790.13
323.04 K, 12000 kPa, x1 = 0.0196 | 818.56
323.04 K, 13000 kPa, x1 = 0.0074 | 791.03
323.04 K, 13000 kPa, x1 = 0.0196 | 819.44
323.04 K, 14000 kPa, x1 = 0.0074 | 791.94
323.04 K, 14000 kPa, x1 = 0.0196 | 820.29
323.04 K, 15000 kPa, x1 = 0.0074 | 792.82
323.04 K, 15000 kPa, x1 = 0.0196 | 821.15
